ChEMBL document CHEMBL1143658, “Discovery of 2-[(2,4-dichlorophenyl)amino]-N-[(tetrahydro- 2H-pyran-4-yl)methyl]-4-(trifluoromethyl)- 5-pyrimidinecarboxamide, a selective CB2 receptor agonist for the treatment of inflammatory pain” (J Med Chem, 2007)
Calls of active or inactive are those of the source. No cut-off for these calls is given here.

Legend:
Cannabinoid receptor 2 [1] = molecular target: T1, Cannabinoid receptor 2 (Homo sapiens, UniProt P34972); assay: Agonist activity at human recombinant CB2 receptor expressed in Saccharomyces cerevisiae cells; assay type: functional, cell-based
T1 sequence (P34972 whole entry): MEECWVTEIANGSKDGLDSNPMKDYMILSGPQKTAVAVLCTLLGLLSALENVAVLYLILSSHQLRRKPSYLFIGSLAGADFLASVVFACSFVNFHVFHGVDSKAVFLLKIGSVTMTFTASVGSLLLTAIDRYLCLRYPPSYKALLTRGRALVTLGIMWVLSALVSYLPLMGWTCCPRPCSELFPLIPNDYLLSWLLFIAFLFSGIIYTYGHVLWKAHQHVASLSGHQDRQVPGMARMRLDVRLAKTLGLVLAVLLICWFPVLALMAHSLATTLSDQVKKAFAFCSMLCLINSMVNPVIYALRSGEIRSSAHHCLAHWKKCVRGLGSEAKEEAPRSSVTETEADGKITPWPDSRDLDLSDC

Cannabinoid receptor 2 [2] = molecular target: T1, Cannabinoid receptor 2; assay: Efficacy at human recombinant CB2 receptor expressed in Saccharomyces cerevisiae cells relative to HU210; assay type: cell-based
Cytochrome P450 1A2 = molecular target: T2, Cytochrome P450 1A2 (Homo sapiens, UniProt P05177); assay: Inhibition of human CYP1A2; assay type: ADME
T2 sequence (P05177 whole entry): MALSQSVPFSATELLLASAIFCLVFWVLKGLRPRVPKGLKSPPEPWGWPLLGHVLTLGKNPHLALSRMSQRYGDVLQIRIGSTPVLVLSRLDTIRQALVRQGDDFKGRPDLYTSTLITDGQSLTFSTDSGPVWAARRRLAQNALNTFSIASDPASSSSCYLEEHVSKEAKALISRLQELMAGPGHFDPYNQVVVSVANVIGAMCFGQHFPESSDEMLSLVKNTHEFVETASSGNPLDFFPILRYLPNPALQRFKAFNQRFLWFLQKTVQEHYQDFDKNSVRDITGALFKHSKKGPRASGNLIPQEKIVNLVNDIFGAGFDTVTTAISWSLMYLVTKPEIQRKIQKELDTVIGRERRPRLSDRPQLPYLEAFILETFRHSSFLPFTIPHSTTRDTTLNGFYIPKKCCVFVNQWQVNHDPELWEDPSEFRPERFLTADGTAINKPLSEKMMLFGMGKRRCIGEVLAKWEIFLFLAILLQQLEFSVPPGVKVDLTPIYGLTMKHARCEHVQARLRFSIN

Cytochrome P450 2C9 = Cytochrome P450 2C9 (Homo sapiens, UniProt P11712); assay: Inhibition of human CYP2C9; assay type: ADME
Chain of Cytochrome P450 2C9 (P11712 whole entry): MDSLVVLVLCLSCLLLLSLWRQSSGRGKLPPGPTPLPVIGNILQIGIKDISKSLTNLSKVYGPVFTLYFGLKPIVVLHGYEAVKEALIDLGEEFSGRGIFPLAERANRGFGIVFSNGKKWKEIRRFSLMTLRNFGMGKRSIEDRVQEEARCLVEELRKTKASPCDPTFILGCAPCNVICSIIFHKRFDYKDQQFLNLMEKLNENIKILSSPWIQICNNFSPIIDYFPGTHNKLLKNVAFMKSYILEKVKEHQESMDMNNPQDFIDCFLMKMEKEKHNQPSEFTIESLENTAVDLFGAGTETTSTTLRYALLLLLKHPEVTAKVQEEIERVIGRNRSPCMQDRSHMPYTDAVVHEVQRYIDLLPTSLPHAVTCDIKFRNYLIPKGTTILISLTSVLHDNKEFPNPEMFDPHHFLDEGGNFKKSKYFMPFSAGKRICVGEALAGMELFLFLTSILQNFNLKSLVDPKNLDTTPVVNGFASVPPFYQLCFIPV

Cytochrome P450 2C19 = Cytochrome P450 2C19 (Homo sapiens, UniProt P33261); assay: Inhibition of human CYP2C19; assay type: ADME
Chain of Cytochrome P450 2C19 (P33261 whole entry): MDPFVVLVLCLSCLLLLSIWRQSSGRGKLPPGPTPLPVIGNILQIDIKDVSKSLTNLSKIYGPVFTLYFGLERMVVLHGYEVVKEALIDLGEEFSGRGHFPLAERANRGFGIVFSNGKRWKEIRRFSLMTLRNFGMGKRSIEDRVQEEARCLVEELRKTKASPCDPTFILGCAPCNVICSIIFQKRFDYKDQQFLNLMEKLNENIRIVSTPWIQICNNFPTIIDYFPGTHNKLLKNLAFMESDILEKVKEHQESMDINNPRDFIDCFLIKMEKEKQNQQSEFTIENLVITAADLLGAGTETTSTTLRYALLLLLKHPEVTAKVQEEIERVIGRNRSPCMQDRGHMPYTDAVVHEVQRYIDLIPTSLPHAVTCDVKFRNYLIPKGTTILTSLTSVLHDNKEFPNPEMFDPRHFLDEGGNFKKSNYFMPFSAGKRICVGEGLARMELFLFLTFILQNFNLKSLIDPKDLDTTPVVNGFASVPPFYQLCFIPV

Cytochrome P450 2D6 = Cytochrome P450 2D6 (Homo sapiens, UniProt P10635); assay: Inhibition of human CYP2D6; assay type: ADME
Chain of Cytochrome P450 2D6 (P10635 whole entry): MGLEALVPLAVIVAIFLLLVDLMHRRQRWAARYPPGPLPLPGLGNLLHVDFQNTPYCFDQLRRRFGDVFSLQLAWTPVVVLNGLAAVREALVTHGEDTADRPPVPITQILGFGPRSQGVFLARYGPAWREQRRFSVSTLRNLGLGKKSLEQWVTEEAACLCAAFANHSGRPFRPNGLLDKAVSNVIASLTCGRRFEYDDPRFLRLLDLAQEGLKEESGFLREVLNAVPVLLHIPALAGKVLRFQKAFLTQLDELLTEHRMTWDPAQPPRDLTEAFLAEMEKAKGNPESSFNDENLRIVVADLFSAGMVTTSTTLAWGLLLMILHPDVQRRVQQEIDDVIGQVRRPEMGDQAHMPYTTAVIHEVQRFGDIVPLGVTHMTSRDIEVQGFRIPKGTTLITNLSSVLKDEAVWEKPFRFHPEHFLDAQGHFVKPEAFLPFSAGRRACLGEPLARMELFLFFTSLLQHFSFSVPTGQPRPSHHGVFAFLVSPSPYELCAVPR

Cytochrome P450 3A4 = Cytochrome P450 3A4 (Homo sapiens, UniProt P08684); assay: Inhibition of human CYP3A4
Chain of Cytochrome P450 3A4 (P08684 whole entry): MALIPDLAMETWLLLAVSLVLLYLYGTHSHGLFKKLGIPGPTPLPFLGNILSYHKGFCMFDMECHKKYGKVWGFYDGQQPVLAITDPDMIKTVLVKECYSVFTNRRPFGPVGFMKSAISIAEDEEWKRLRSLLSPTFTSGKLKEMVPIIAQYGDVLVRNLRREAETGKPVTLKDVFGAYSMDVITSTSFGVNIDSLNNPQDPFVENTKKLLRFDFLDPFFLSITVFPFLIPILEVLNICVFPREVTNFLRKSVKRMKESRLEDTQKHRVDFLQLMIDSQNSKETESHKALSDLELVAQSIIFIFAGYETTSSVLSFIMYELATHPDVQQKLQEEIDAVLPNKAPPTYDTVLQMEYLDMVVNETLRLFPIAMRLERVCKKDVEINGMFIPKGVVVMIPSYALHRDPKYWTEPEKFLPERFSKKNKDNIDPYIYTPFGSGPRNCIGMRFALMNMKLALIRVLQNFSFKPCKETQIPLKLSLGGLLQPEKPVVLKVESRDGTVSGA

[3] = molecular target: Cannabinoid receptor 1 (Homo sapiens) (UniProt P21554); assay: Agonist activity at recombinant human CB1 receptor expressed in Saccharomyces cerevisiae cells at 2 uM; assay type: functional, cell-based
Chain of Cannabinoid receptor 1 (Homo sapiens) (P21554 whole entry): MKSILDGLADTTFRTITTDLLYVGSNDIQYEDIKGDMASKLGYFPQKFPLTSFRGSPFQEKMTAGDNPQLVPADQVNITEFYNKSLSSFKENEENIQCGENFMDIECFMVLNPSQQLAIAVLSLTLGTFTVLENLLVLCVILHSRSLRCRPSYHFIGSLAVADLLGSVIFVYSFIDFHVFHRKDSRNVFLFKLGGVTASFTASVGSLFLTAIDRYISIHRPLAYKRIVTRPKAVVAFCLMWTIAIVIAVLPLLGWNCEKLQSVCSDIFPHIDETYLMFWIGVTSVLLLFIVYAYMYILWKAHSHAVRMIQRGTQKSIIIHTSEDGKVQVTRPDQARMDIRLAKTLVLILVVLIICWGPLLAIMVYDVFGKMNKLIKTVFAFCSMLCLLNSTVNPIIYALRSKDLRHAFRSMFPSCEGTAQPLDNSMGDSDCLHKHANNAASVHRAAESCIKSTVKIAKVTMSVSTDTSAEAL

[4] = molecular target: T3, Cannabinoid receptor 2 (Rattus norvegicus) (UniProt Q9QZN9); assay: (§1) Agonist activity at rat CB2 receptor; assay type: functional
T3 sequence (whole entry): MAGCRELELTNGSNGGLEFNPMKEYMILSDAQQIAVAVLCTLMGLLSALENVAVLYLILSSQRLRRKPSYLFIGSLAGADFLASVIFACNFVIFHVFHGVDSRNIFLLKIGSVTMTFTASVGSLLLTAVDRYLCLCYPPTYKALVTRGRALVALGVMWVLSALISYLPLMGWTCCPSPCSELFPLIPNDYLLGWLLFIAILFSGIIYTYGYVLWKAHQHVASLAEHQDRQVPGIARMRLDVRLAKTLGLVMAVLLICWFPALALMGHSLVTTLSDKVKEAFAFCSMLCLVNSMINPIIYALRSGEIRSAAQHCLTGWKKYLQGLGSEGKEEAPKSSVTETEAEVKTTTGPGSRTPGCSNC

Cannabinoid receptor 2 [5] = molecular target: T4, Cannabinoid receptor 2 (Rattus norvegicus, UniProt Q9QZN9); assay: as §1; assay type: functional
T4 sequence (Q9QZN9 whole entry): T3 sequence (whole entry)

[6] = Oral bioavailability in rat; assay type: ADME, organism-based; settings: in vivo
[7] = Half life in rat; assay type: ADME, organism-based; settings: in vivo
Rattus norvegicus [8] = assay: Analgesic activity in po dosed rat FCA model of inflammatory pain; assay type: functional
Rattus norvegicus [9] = assay: Reversal of hyperalgesia in rat at 0.3 mg/kg, po by weight bearing protocol; assay type: functional, organism-based; design: dose 0.3 mg/kg
[10] = Drug concentration in blood of rat FCA model of inflammatory pain at 0.03 mg/kg, po after 1hr; assay type: ADME, organism-based; design: dose 0.03 mg/kg, route oral; settings: read-out: Activity
[11] = Drug concentration in blood of rat FCA model of inflammatory pain at 0.1 mg/kg, po after 1hr; assay type: ADME, organism-based; design: dose 0.1 mg/kg, route oral; settings: read-out: Activity
[12] = Drug concentration in blood of rat FCA model of inflammatory pain at 0.3 mg/kg, po after 1hr; assay type: ADME, organism-based; design: dose 0.3 mg/kg, route oral; settings: read-out: Activity
Rattus norvegicus [13] = assay: Reversal of FCA-induced hyperalgesia in rat administered thrice daily at 1 mg/kg, po; assay type: functional, organism-based; design: dose 1 mg/kg
Liver microsomes = assay: Intrinsic clearance in rat liver microsome; assay type: ADME

Row | Structure (SMILES) | EC50 (Cannabinoid receptor 2 [1]) [nM] | Efficacy (Cannabinoid receptor 2 [2]) [%] | IC50 (Cytochrome P450 1A2) [nM] | IC50 (Cytochrome P450 2C19) [nM] | IC50 (Cytochrome P450 2D6) [nM] | other results
1 | O=C(NCC1CCC1)c1cnc(Nc2cccc(Cl)c2)nc1C(F)(F)F | 40 | 82 | 8000 | 8000 | 22000 | IC50 (Cytochrome P450 2C9): 3000 nM; IC50 (Cytochrome P450 3A4): 75000 nM
2 | O=C(NCc1ccccc1)c1cnc(Nc2ccccc2Cl)nc1C(F)(F)F | 250 | 48 | – | – | – | –
3 | COc1ccc(Nc2ncc(C(=O)NCc3ccccc3)c(C(F)(F)F)n2)cc1 | 200 | 32 | – | – | – | –
4 | O=C(NCc1ccccc1)c1cnc(Nc2cccc(Br)c2)nc1C(F)(F)F | 230 | 81 | – | – | – | –
5 | O=C(NCc1ccccc1)c1cnc(Nc2ccc(Cl)cc2)nc1C(F)(F)F | 126 | 49 | – | – | – | –
6 | N#Cc1ccc(Nc2ncc(C(=O)NCc3ccccc3)c(C(F)(F)F)n2)cc1 | 400 | 67 | – | – | – | –
7 | O=C(NCC1CCOCC1)c1cnc(Nc2cccc(F)c2F)nc1C(F)(F)F | 400 | 90 | – | – | – | –
8 | O=C(NCC1CCOCC1)c1cnc(Nc2ccc(Cl)cc2F)nc1C(F)(F)F | 200 | 80 | > 100000 | > 100000 | > 100000 | IC50 (Cytochrome P450 2C9): > 100000 nM; IC50 (Cytochrome P450 3A4): > 100000 nM
9 | O=C(NCC1(O)CCCCC1)c1cnc(Nc2cccc(Cl)c2)nc1C(F)(F)F | 125 | 83 | 11000 | 17000 | 13000 | –
10 | N#Cc1cccc(Nc2ncc(C(=O)NCc3ccccc3)c(C(F)(F)F)n2)c1 | 455 | 76 | – | – | – | –
11 | O=C(NCC1CCOCC1)c1cnc(Nc2c(Cl)cccc2Cl)nc1C(F)(F)F | 630 | 86 | – | – | – | –
12 | O=C(NCC1CCOCC1)c1cnc(Nc2ccc(F)cc2F)nc1C(F)(F)F | 630 | 81 | – | – | – | –
13 | O=C(NCC1CCOCC1)c1cnc(Nc2ccc(Cl)c(Cl)c2)nc1C(F)(F)F | 49 | 83 | 8000 | > 25000 | > 25000 | IC50 (Cytochrome P450 2C9): > 25000 nM; IC50 (Cytochrome P450 3A4): > 25000 nM; Efficacy [3]: 10%
14 | O=C(NCc1ccncc1)c1cnc(Nc2cccc(Cl)c2)nc1C(F)(F)F | 60 | 94 | 400 | 1900 | < 100 | IC50 (Cytochrome P450 2C9): 900 nM; IC50 (Cytochrome P450 3A4): < 100 nM
15 | O=C(NCC1CC1)c1cnc(Nc2cccc(Cl)c2)nc1C(F)(F)F | 80 | 79 | – | – | – | –
16 | O=C(NCC1CCOCC1)c1cnc(Nc2cccc(Cl)c2Cl)nc1C(F)(F)F | 80 | 90 | – | – | – | –
17 | O=C(NCc1ccccc1)c1cnc(Nc2cccc(F)c2)nc1C(F)(F)F | 310 | 88 | – | – | – | –
18 | O=C(OCc1ccco1)c1cnc(N2CCOCC2)nc1C(F)(F)F | 630 | 55 | – | – | – | –
19 | O=C(NCC1CCOCC1)c1cnc(Nc2ccc(Cl)cc2Cl)nc1C(F)(F)F [GW842166X] | 63 | 95 | > 100000 | > 100000 | > 100000 | IC50 (Cytochrome P450 2C9): > 100000 nM; IC50 (Cytochrome P450 3A4): > 100000 nM; Efficacy [4]: 100%; EC50 (Cannabinoid receptor 2 [5]): 91 nM; bioavailability [6]: 58%; half-life [7]: 3 h; ED50 (Rattus norvegicus [8]): 0.1 mg/kg; Activity (Rattus norvegicus [9]): Active; concentration at 1 h [10]: 30 nM; concentration at 1 h [11]: 130 nM; concentration at 1 h [12]: 370 nM; Activity (Rattus norvegicus [13]): Active
20 | O=C(NCC1CCOCC1)c1cnc(Nc2cccc(Cl)c2F)nc1C(F)(F)F | 125 | 90 | 99000 | > 100000 | > 100000 | IC50 (Cytochrome P450 2C9): 75000 nM; IC50 (Cytochrome P450 3A4): > 100000 nM
21 | COc1ccccc1Nc1ncc(C(=O)NCc2ccccc2)c(C(F)(F)F)n1 | 158 | 77 | – | – | – | –
22 | CC(=O)Nc1cccc(Nc2ncc(C(=O)NCc3ccccc3)c(C(F)(F)F)n2)c1 | > 25000 | – | – | – | – | –
23 | O=C(NCc1ccco1)c1cnc(Nc2ccccc2)nc1C(F)(F)F | 630 | 62 | – | – | – | CL (Liver microsomes): 4.6 mL/min/g
